{"source": "patent US20220409620A1", "about": "“REDUCING IMMUNOGENICITY TO PEGLOTICASE” (Horizon Pharma Rheumatology LLC, priority 2016, published 2022)", "key": {"patients": {"system": "patients", "settings": "cited from earlier work"}, "[1]": {"system": "adult patients with uncontrolled gout", "assay": "Patient and physician global assessment of gout, open-label study", "assay_type": "in vivo, human", "settings": "Methotrexate Baseline, mITT Population", "from_the_text": "Patient Global Assessment: The patient global assessment was collected at the Screening and Week −4 (prior to the first dose of MTX) Visits during the MTX Run-in Period; prior to KXX infusion at the Day 1 and Weeks 14, 24 and 36 Visits during the KXX+MTX Period; at the End of Pegloticase Infusions Visit (if applicable); the Week 52/End of Study/Early Termination Visit and the Post Treatment Periods 3 and 6 Month Follow-up Visits.\nPhysician Global Assessment: The physician global assessment was collected at the Screening and Week −4 or week −6 (prior to the first dose of MTX) Visits during the MTX Run-in Period for the open-label and randomized studies, respectively; prior to pegloticase infusion at the Day 1 and Weeks 14, 24 and 36 Visits, and the Day 1 and week 6, 14, 20, 24, 30, 36, and 44 visits during the Pegloticase+IMM Period for the open-label and randomized studies, respectively; at the End of Pegloticase Infusions Visit (if applicable), the Week 52/End of Study/Early Termination Visit and the Post Treatment Periods 3 and 6 Month Follow-up Visits (open-label study)."}, "[2]": {"system": "subjects with refractory gout", "settings": "after doses of 4 to 12 mg; from 11.1±0.6 mg/dL; cited from earlier work"}, "[3]": {"settings": "End of Pegloticase Infusions Visit"}}, "note": "Where two headings read alike, the source gives them in different places.", "data": [{"molecule": "CN(Cc1cnc2nc(N)nc(N)c2n1)c1ccc(C(=O)N[C@@H](CCC(=O)O)C(=O)O)cc1", "note": "[MTX, methotrexate]", "values": [{"measurement": "Increased susceptibility to infection", "setting": "patients; RA", "value": "< 1", "unit": "%"}, {"measurement": "Leukopenia", "setting": "patients; RA", "value": 28, "unit": "%"}, {"measurement": "Nausea and vomiting", "setting": "patients; RA", "value": 12, "unit": "%"}, {"measurement": "Increased susceptibility to infection", "setting": "patients; renal transplant", "value": 20, "unit": "%"}, {"measurement": "Leukopenia", "setting": "patients; renal transplant", "value": "> 50", "unit": "%"}, {"measurement": "neoplasia (lymphoma)", "setting": "patients; renal transplant", "value": 0.5, "unit": "%"}, {"measurement": "neoplasia (other than lymphoma)", "setting": "patients; renal transplant", "value": 3, "unit": "%"}]}, {"molecule": "pegloticase", "values": [{"measurement": "Patient Global Assessment of Gout, Change from Baseline, Mean (SD)", "setting": "[1]; Day 1", "value": "0.2 (1.85)"}, {"measurement": "Patient Global Assessment of Gout, Change from Baseline, Median", "setting": "[1]; Day 1", "value": 0.0}, {"measurement": "Patient Global Assessment of Gout, Observed, Mean (SD)", "setting": "[1]; Day 1", "value": "5.8 (1.76)"}, {"measurement": "Patient Global Assessment of Gout, Observed, Median", "setting": "[1]; Day 1", "value": 6.0}, {"measurement": "Physician Global Assessment of Gout, Change from Baseline, Mean (SD)", "setting": "[1]; Day 1", "value": "−0.1 (2.35)"}, {"measurement": "Physician Global Assessment of Gout, Change from Baseline, Median", "setting": "[1]; Day 1", "value": 0.0}, {"measurement": "Physician Global Assessment of Gout, Observed, Mean (SD)", "setting": "[1]; Day 1", "value": "6.0 (2.45)"}, {"measurement": "Physician Global Assessment of Gout, Observed, Median", "setting": "[1]; Day 1", "value": 7.0}, {"measurement": "Patient Global Assessment of Gout, Change from Baseline, Mean (SD)", "setting": "[1]; Early Termination Visit", "value": "0.7 (2.89)"}, {"measurement": "Patient Global Assessment of Gout, Change from Baseline, Median", "setting": "[1]; Early Termination Visit", "value": "−1.0"}, {"measurement": "Patient Global Assessment of Gout, Observed, Mean (SD)", "setting": "[1]; Early Termination Visit", "value": "5.7 (3.06)"}, {"measurement": "Patient Global Assessment of Gout, Observed, Median", "setting": "[1]; Early Termination Visit", "value": 5.0}, {"measurement": "Physician Global Assessment of Gout, Change from Baseline, Mean (SD)", "setting": "[1]; Early Termination Visit", "value": "−2.7 (2.08)"}, {"measurement": "Physician Global Assessment of Gout, Change from Baseline, Median", "setting": "[1]; Early Termination Visit", "value": "−2.0"}, {"measurement": "Physician Global Assessment of Gout, Observed, Mean (SD)", "setting": "[1]; Early Termination Visit", "value": "3.7 (2.08)"}, {"measurement": "Physician Global Assessment of Gout, Observed, Median", "setting": "[1]; Early Termination Visit", "value": 3.0}, {"measurement": "Patient Global Assessment of Gout, Change from Baseline, Mean (SD)", "setting": "[1]; [3]", "value": "−4.0 (4.24)"}, {"measurement": "Patient Global Assessment of Gout, Change from Baseline, Median", "setting": "[1]; [3]", "value": "−4.0"}, {"measurement": "Patient Global Assessment of Gout, Observed, Mean (SD)", "setting": "[1]; [3]", "value": "2.0 (2.83)"}, {"measurement": "Patient Global Assessment of Gout, Observed, Median", "setting": "[1]; [3]", "value": 2.0}, {"measurement": "Physician Global Assessment of Gout, Change from Baseline, Mean (SD)", "setting": "[1]; [3]", "value": "−7.0 (0.00)"}, {"measurement": "Physician Global Assessment of Gout, Change from Baseline, Median", "setting": "[1]; [3]", "value": "−7.0"}, {"measurement": "Physician Global Assessment of Gout, Observed, Mean (SD)", "setting": "[1]; [3]", "value": "0.5 (0.71)"}, {"measurement": "Physician Global Assessment of Gout, Observed, Median", "setting": "[1]; [3]", "value": 0.5}, {"measurement": "Patient Global Assessment of Gout, Change from Baseline, Mean (SD)", "setting": "[1]; Week 14", "value": "−2.5 (2.77)"}, {"measurement": "Patient Global Assessment of Gout, Change from Baseline, Median", "setting": "[1]; Week 14", "value": "−2.5"}, {"measurement": "Patient Global Assessment of Gout, Observed, Mean (SD)", "setting": "[1]; Week 14", "value": "3.1 (2.27)"}, {"measurement": "Patient Global Assessment of Gout, Observed, Median", "setting": "[1]; Week 14", "value": 3.0}, {"measurement": "Physician Global Assessment of Gout, Change from Baseline, Mean (SD)", "setting": "[1]; Week 14", "value": "−4.2 (2.22)"}, {"measurement": "Physician Global Assessment of Gout, Change from Baseline, Median", "setting": "[1]; Week 14", "value": "−5.0"}, {"measurement": "Physician Global Assessment of Gout, Observed, Mean (SD)", "setting": "[1]; Week 14", "value": "1.9 (1.64)"}, {"measurement": "Physician Global Assessment of Gout, Observed, Median", "setting": "[1]; Week 14", "value": 2.0}, {"measurement": "Patient Global Assessment of Gout, Change from Baseline, Mean (SD)", "setting": "[1]; Week 24", "value": "−3.7 (3.23)"}, {"measurement": "Patient Global Assessment of Gout, Change from Baseline, Median", "setting": "[1]; Week 24", "value": "−3.0"}, {"measurement": "Patient Global Assessment of Gout, Observed, Mean (SD)", "setting": "[1]; Week 24", "value": "2.0 (1.79)"}, {"measurement": "Patient Global Assessment of Gout, Observed, Median", "setting": "[1]; Week 24", "value": 3.0}, {"measurement": "Physician Global Assessment of Gout, Change from Baseline, Mean (SD)", "setting": "[1]; Week 24", "value": "−5.3 (2.10)"}, {"measurement": "Physician Global Assessment of Gout, Change from Baseline, Median", "setting": "[1]; Week 24", "value": "−6.0"}, {"measurement": "Physician Global Assessment of Gout, Observed, Mean (SD)", "setting": "[1]; Week 24", "value": "0.8 (0.87)"}, {"measurement": "Physician Global Assessment of Gout, Observed, Median", "setting": "[1]; Week 24", "value": 1.0}, {"measurement": "Patient Global Assessment of Gout, Change from Baseline, Mean (SD)", "setting": "[1]; Week 36", "value": "−3.4 (2.92)"}, {"measurement": "Patient Global Assessment of Gout, Change from Baseline, Median", "setting": "[1]; Week 36", "value": "−4.0"}, {"measurement": "Patient Global Assessment of Gout, Observed, Mean (SD)", "setting": "[1]; Week 36", "value": "2.1 (2.80)"}, {"measurement": "Patient Global Assessment of Gout, Observed, Median", "setting": "[1]; Week 36", "value": 1.0}, {"measurement": "Physician Global Assessment of Gout, Change from Baseline, Mean (SD)", "setting": "[1]; Week 36", "value": "−5.9 (2.03)"}, {"measurement": "Physician Global Assessment of Gout, Change from Baseline, Median", "setting": "[1]; Week 36", "value": "−6.0"}, {"measurement": "Physician Global Assessment of Gout, Observed, Mean (SD)", "setting": "[1]; Week 36", "value": "0.7 (1.00)"}, {"measurement": "Physician Global Assessment of Gout, Observed, Median", "setting": "[1]; Week 36", "value": 0.0}, {"measurement": "Patient Global Assessment of Gout, Change from Baseline, Mean (SD)", "setting": "[1]; Week 52/ET", "value": "−4.3 (0.58)"}, {"measurement": "Patient Global Assessment of Gout, Change from Baseline, Median", "setting": "[1]; Week 52/ET", "value": "−4.0"}, {"measurement": "Patient Global Assessment of Gout, Observed, Mean (SD)", "setting": "[1]; Week 52/ET", "value": "1.0 (1.00)"}, {"measurement": "Patient Global Assessment of Gout, Observed, Median", "setting": "[1]; Week 52/ET", "value": 1.0}, {"measurement": "Physician Global Assessment of Gout, Change from Baseline, Mean (SD)", "setting": "[1]; Week 52/ET", "value": "−7.3 (0.58)"}, {"measurement": "Physician Global Assessment of Gout, Change from Baseline, Median", "setting": "[1]; Week 52/ET", "value": "−7.0"}, {"measurement": "Physician Global Assessment of Gout, Observed, Mean (SD)", "setting": "[1]; Week 52/ET", "value": "1.0 (0.00)"}, {"measurement": "Physician Global Assessment of Gout, Observed, Median", "setting": "[1]; Week 52/ET", "value": 1.0}, {"measurement": "plasma urate concentration (pUAc) after dosing, mean±SD", "setting": "[2]", "value": "1.0±0.5", "unit": "mg/dL"}]}]}
